This note sets out measurements from patent publication US7653490B2, “Nuclear magnetic resonance assembly of chemical entities” (Triad Liquidating Company LLC, priority 2001, dated 2010).

The target in one assay is p38α MAP kinase (Homo sapiens, UniProt Q16539). In words: Phosphorylation of myelin basic protein (MBP) by p38α. The class given is biochemical. The protocol:
The TTM2001.101.A09 bi-ligand compound and the fragments from which it was constructed were tested as inhibitors of p38α enzymatic activity in an assay measuring phosphorylation of myelin basic protein (MBP) by p38α.

The target of assay [1] is unactivated p38α MAP kinase (Homo sapiens, UniProt Q16539). Description: WaterLOGSY NMR binding screen. To be noted: 10 to 30 micromolar p38α, 0.1 to 1.0 millimolar compound, 4° C. From the text: A library of 29 PBBA structure analogs was screened against unlabeled p38α MAP kinase (p38α) as follows. Samples containing 10 to 30 micromolar concentration of unactivated p38α MAP kinase and 0.1 to 1.0 millimolar concentration of one of the PBBA structure analogs were obtained. The samples were screened using WaterLOGSY with saturations times of 2 s (frequency selective excitation via a train of 232 6 ms π pulses with a GAUSS profile at an 80 Hz RF field strength) with solvent suspension using WATERGATE at 4° C. WaterLOGSY is further described in Dalvit et al. J. Biomol. NMR 21:349-59 (2001) Dalvit et al. J. Magn. Res. B112:282-288 (1996) and Dalvit et al., J. Biomol. NMR 11:437-444 (1998).
A number of PBBA related compounds were screened with WaterLOGSY to identify those that bound to p38α. Of the compounds shown in FIG. 6, two were identified by cross-saturation experiments (with 10 μM unactivated p38α, 1.5 s to 3.0 s saturation with a train of IBURP pulses) to interact with TTM2001.082.A10 as indicated by the arrows.

For assay [2], the target named is T1, p38α (Homo sapiens, UniProt Q16539). Description: Fluorescence polarization displacement of fluorescently tagged staurosporine. The class given is binding. (In fluorescence polarisation assays a small probe gives low polarisation when free and higher when bound to something large.)
The target in assay [3] is activated p38α protein kinase (Homo sapiens, UniProt Q16539). Description: 1D saturation transfer difference with selective saturation of antenna methyl of TTM2002.143.A27. It counts as binding. To be noted: 2 s saturation at 3.0 ppm, 4° C. An excerpt:
The 25 compounds from the MOTIF library described in Example IV were screened for proximal binding near the ligand-probe as follows. Samples were obtained containing 100 to 1000 micromolar concentrations of the TTM2002.143.A27 ligand-probe, 10 to 50 micromolar concentrations of activated p38α protein kinase, and one of the 25 compounds at a concentration of 100 to 1000 micromolar. Samples were screened for the presence of second ligands binding proximal to the common ligand-probe by (^1H) 1 dimensional saturation transfer difference experiments using saturations times of 2 s (frequency selective excitation via a train of 232 6 ms τ pulses with a GAUSS profile at an 80 Hz RF field strength) with solvent suspension using WATERGATE at 4° C.

The target of assay [4] is T1, p38α. Description: 1D 1H NMR line broadening. It counts as binding. To be noted: 50 micromolar compound, 10 μM p38α. The protocol: The ability of TTM2001.101.A09 to bind to p38α was determined by comparing the degree of line broadening in 1D ^1H NMR spectra for the compound in the presence of p38α compared to in the absence of p38α.
Assay [5] deals with T1, p38α. Description: WaterLOGSY competition experiments (displacement of PBBA). The class given is binding. From the text:
A peptide having the sequence […] (SEQ ID NO:1) is a known phosphorylation substrate for p38α as described, for example, in Chen et al. Biochemistry 39:2079-2087 (2000). […] This site is shown in the lower panel of FIG. 7, and is referred to as the SL (specificity ligand) site, since extending a bi-ligand library into this site off of an ATP mimic might provide additional specificity.

T1 sequence (Q16539 whole entry): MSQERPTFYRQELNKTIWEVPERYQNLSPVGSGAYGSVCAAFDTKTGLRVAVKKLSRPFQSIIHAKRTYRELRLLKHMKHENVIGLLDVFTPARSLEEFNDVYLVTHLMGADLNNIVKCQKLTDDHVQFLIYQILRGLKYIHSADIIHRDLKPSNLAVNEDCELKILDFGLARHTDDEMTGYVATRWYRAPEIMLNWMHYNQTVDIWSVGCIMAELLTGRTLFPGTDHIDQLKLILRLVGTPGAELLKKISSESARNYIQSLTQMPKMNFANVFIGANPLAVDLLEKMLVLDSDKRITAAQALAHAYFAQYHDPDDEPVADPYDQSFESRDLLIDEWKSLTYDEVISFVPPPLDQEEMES
Chain of p38α MAP kinase (Q16539 whole entry, the tested form may be a part): as the sequence (Q16539 whole entry) above
Chain of unactivated p38α MAP kinase (Q16539 whole entry): as above
Chain of activated p38α protein kinase (Q16539 whole entry): as above

In the case of `CCCCc1ccc(C(=O)O)cc1` [PBBA, p-butyl benzoic acid], at p38α MAP kinase, the “inhibition of phosphorylation of MBP protein by p38α (in words)” value is “inhibit phosphorylation of MBP protein by p38α”. Besides, the “binding to p38α by WaterLOGSY cross-saturation” value in assay [1] was “showed cross-saturation effects with p38α indicating binding to the protein”. Further, the “ability to displace fluorescently tagged staurosporine” value on p38α [2] is “not able to displace a fluorescently tagged staurosporine”.
`CCCCCc1ccc(N)cc1` [PPA, p-pentyl-aniline]: the “intensity change of aromatic protons on selective saturation of antenna methyl protons” value in assay [3] is listed as “showed a reduction in the intensity on selective saturation of the methyl protons”.
Usually Kd stands for a measure of binding affinity in units of concentration. Broadly, the IC50 is the concentration that gives 50% inhibition. With `O=C(O)c1ccc(CCCCCCSCc2cc(-n3cnc4cc(C(=O)O)ccc43)ccc2F)cc1` [TTM2001.101.A09], the dissociation constant Kd at p38α MAP kinase (IC50 corrected for high ATP concentration, read-out: Kd for binding between p38α and compound) was approximately 0.3 µM. Besides, on p38α MAP kinase (read-out: IC50, inhibition of myelin basic protein phosphorylation by p38α), the IC50 turned out to be 1.7 µM. The “fold tighter than either of the starting fragments” value on p38α MAP kinase (versus starting fragments PBBA and TTM2001.082.B09) is reported as “greater than 100 fold”. Moreover, at p38α [4], the “line broadening in 1D 1H NMR spectrum in presence of p38α” value is reported as “significant line-broadening”.
As for “SEQ ID NO:1: peptide IPTTPITTTYFFFKKK, known phosphorylation substrate for p38α”, the “ability to displace PBBA from p38α, WaterLOGSY competition” value in the assay with p38α [5] is “could not displace PBBA from p38α”.
